Results on 3 substances are retold here after patent US5789182A, “System for assaying binding to a heparin-binding growth factor receptor” (The Children's Medical Center Corporation, priority 1993, dated 1998).

One data set has as its system angiogenesis. Particulars: associated with embryogenesis and inflammation; cited from earlier work.
The subject of data set [1] is endothelial cell migration. Particulars: cited from earlier work.
The test system of the next data set is mouse FGF receptor (mFR). Nature of the data set: High-affinity receptor binding of 125I-bFGF to CHO cells transfected with mFR. Particulars: for high-affinity binding of bFGF: no heparin. The text has this:
The following cell lines were used: Balb/c fibroblasts; NIH 3T3 cells; CHO K1 cells (parental wild-type CHO cells, available as ATCC Accession No. CCL 61); clones 803 and 677, each of which is a clone of glucuronosyltransferase-deficient CHO K1 cells which lack cell-surface HSPG (in addition, 677 cells overexpress the closely related GAG, chondroitin sulfate); and clone 606, HS-N-sulfotransferase-deficient CHO K1-derived cells which express normal levels of (but undersulfated) cell surface HSPG. The mutant clones 803, 677, and 606 were obtained from Dr. Jeffrey D. Esko. Wild-type and mutant CHO cells were routinely grown in Hams F12 medium supplemented with 10% bovine fetal calf serum and L-glutamine (Sigma). For transfection of the murine FGF receptor, approximately 4×10^7 cells were trypsinized, washed in ice cold PBS, and incubated with 50 μg Mo/mFR/SV and 8 μg of CMV B-gal (source; used as a control for transfection efficiency) for 10 min at 4° C. Electroporation was done in a Bio-Rad Gene Pulser at 960 uF and 300V. Cells were then plated in 3 cm, 6-well plates, medium was replaced after 24 hours, and b-gal and binding assays were performed 36 to 48 hours after electroporation. Routinely, 30 to 40% of the cells stained positive for b-gal.
(§1) Subconfluent cultures of about 2×10^5 cells in a 30 mm dish (Costar) were precooled to 4° C., washed twice with cold Dulbecco's modified Eagle's medium supplemented with 25 mM HEPES pH 7.5 and 1% bovine serum albumin (DMEM/BSA), and incubated for 2 hours at 4° C. with ^125 I-bFGF (50 μCi/ mmole) in DMEM/BSA at different concentrations and in the presence or absence of heparin, as determined by the experimental protocol. The binding medium was then discarded and the cells washed twice with ice cold PBS and twice with DMEM/BSA. To determine the amount of low-affinity-bound bFGF, the cells were incubated twice for 5 minutes with cold PBS, pH 7.5, containing 1.6M NaCl (low-affinity-bound bFGF could be totally removed using salt concentrations of 0.8M and higher--data not shown), and the radioactivity of the salt extraction solution assayed in a gamma counter. High-affinity-bound bFGF was determined by a 2M NaCl (pH 4.0) extraction (Moscatelli, J. Cell Biol. 107:753-759, 1988). Nonspecific binding was determined by including a 100-fold excess of unlabeled bFGF. After binding in the presence or absence of heparin, bFGF-receptor crosslinking with disuccinimidyl suberate (DSS) was performed as described (Yayon and Klagsbrun, Proc. Natl. Acad. Sci. USA 87:5346-5350, 1990). Briefly, cells were washed twice with PBS and then incubated with 0.15 mM DSS in PBS for 15 minutes at room temperature. The cells were then washed with a solution of 50 mM Tris, pH 7.4, and 100 mM glycine; and scraped and lysed in a small volume of lysis buffer containing 150 mM NaCl, 20 mM Tris pH 8.0, 1mM MgCl2, 0.1 mM ZnCl2, 0.5% NP-40 (Sigma), 1 μg aprotinin (Sigma), 1 μg/ml leupeptin (Sigma), and 2 mM PMSF (phenylmethylsulfonyl fluoride; Sigma). The cell lysate, cleared by spinning down nuclei and cell debris, was boiled and then electrophoresed under reducing conditions on a 7% SDS polyacrylamide gel. After drying the gel, an autoradiogram was prepared using Kodak X-Omat AR film (Eastman Kodak Co., Rochester, N.Y.).

Data set [2] has as its system cell surface heparin sulfate proteoglycans (low-affinity binding sites). Kind of data set: Low-affinity binding of 125I-bFGF to cells (1.6M NaCl extraction). As to the method: as §1
In data set [3] the test system is FRAP (mouse bFGF receptor/alkaline phosphatase fusion). Nature of the data set: Cell-free assay: 125I-bFGF binding to FRAP fusion protein, immunoprecipitated with AP-specific antibody. As for the experimental part:
Conditioned medium from FRAP-A2 was assayed for its ability to bind ^125 I-bFGF by combining in the presence or in the absence of a standard amount of heparin, an aliquot of conditioned medium with a standard amount of ^125 I-bFGF and a standard amount of monoclonal antibody specific for placental alkaline phosphatase (Medix Biotech, Foster City, Calif.) coupled to CNBr-activated sepharose beads (Pharmacia, Piscataway, N.J.). The mixture was incubated for 90 min at 4° C. and centrifuged to pellet the beads, which were then washed two times with 0.5 ml PBS and re-pelleted before determining the amount of bound ^125 I in a gamma counter. […] In the experiment illustrated in FIG. 13, varying amounts of FRAP-A2-conditioned medium were combined with heparin and ^125 I-bFGF, while in FIG. 14 the variable was the concentration of heparin in the assay mix.

Data set [4] is described as follows: Degradation of bFGF in binding medium (gel electrophoresis, biological activity assay). Particulars: aliquots at end of each experiment, with or without heparin. The class given is physicochemical. The text has this: The heparin-dependent high-affinityreceptor binding was similar to that reported for non-heparin-dependent binding of bFGF to cells which naturally express both HSPG and high-affinity receptors for bFGF (Neufeld et al., J. Biol. Chem. 261:5631-5637, 1985).

For data set [5], the system named is serum-starved Balb/c fibroblasts. Nature of the data set: Biological activity of iodinated bFGF. The class given is cell-based. Particulars: ability to stimulate serum-starved Balb/c fibroblasts. The text has this: Recombinant human bFGF was labeled with ^125 I (17 Ci/mg) (New England Nuclear, Boston, MA) using Iodo-beads (Pierce Chemical Co., Rockford, IL) according to the manufacturer's instructions. […] When subjected to SDS-PAGE, ^125 I-bFGF migrated as a single band in the same position as unlabeled bFGF.

Data set [6] relates to high-affinity FGF receptors. Nature of the data set: High-affinity binding of 125I-bFGF to untransfected CHO cells. Particulars: untransfected wild-type and mutant CHO cells, compared to NIH-3T3 cells. As for the experimental part: as §1, with “The cells were then washed with a solution of 50 mM Tris, pH 7.4, and 100 mM glycine; and scraped and lysed in a small volume of lysis buffer containing 150 mM NaCl, 20 mM Tris pH 8.0, 1mM MgCl2, 0.1 mM ZnCl2, 0.5% NP-40 (Sigma), 1 μg aprotinin (Sigma), 1 μg/ml leupeptin (Sigma), and 2 mM PMSF (phenylmethylsulfonyl fluoride; Sigma). The cell lysate, cleared by spinning down nuclei and cell debris, was boiled and then electrophoresed under reducing conditions on a 7% SDS polyacrylamide gel. After drying the gel, an autoradiogram was prepared using Kodak X-Omat AR film (Eastman Kodak Co., Rochester, N.Y.).” left out

Another data set deals with mouse FGF receptor. Nature of the data set: Chemical crosslinking of 125I-bFGF to mFR-transfected CHO cells (DSS). Particulars: HS-deficient cells; unless heparin was included in the binding medium. As to the method:
as §1, with “The cells were then washed with a solution of 50 mM Tris, pH 7.4, and 100 mM glycine; and scraped and lysed in a small volume of lysis buffer containing 150 mM NaCl, 20 mM Tris pH 8.0, 1mM MgCl2, 0.1 mM ZnCl2, 0.5% NP-40 (Sigma), 1 μg aprotinin (Sigma), 1 μg/ml leupeptin (Sigma), and 2 mM PMSF (phenylmethylsulfonyl fluoride; Sigma). The cell lysate, cleared by spinning down nuclei and cell debris, was boiled and then electrophoresed under reducing conditions on a 7% SDS polyacrylamide gel. After drying the gel, an autoradiogram was prepared using Kodak X-Omat AR film (Eastman Kodak Co., Rochester, N.Y.).” left out

With Protamine, in the data set on angiogenesis, the effect on angiogenesis entry is on record as “inhibits angiogenesis”. For the same substance, in data set [1], the “effect on heparin-stimulated endothelial cell migration” value is on record as “inhibits the ability of heparin to stimulate endothelial cell migration”.

In the case of “^125 I-bFGF: recombinant human bFGF labeled with 125I using Iodo-beads [reference compound]”, the “125I-bFGF bound relative to untransfected cells” value with mouse FGF receptor (mFR) (wild-type CHO cells transiently transfected with mFR) is 8-10 fold.

“bFGF: recombinant human basic fibroblast growth factor, gift from Takeda Inc.”: the “reduction of low-affinity binding of bFGF compared to wild-type CHO cells” value in [2] (CHO clone 606 (undersulfated HSPG)) is reported as “more than 50%”. Also, the “low-affinity binding of bFGF” value in data set [2] (clone 677 cells (undetectable HSPG, overexpress chondroitin sulfate)) is “Absence of low-affinity bFGF binding”; in data set [2] (clone 803 cells (5%-10% of wild-type HSPG)), “did not bind significant amounts”; in data set [2] (wild-type CHO K1 cells) it was “comparable to that found for NIH-3T3 cells”. Besides, the “character of bFGF-receptor binding” value in the data set on mouse FGF receptor (mFR) (HS-deficient cells, 40 ng/ml heparin) was “specific, saturable, single class of high-affinity binding sites”. Also, in the data set on mouse FGF receptor (mFR) (excess of unlabeled bFGF), the “competition of heparin-dependent high-affinity receptor binding of 125I-bFGF” value is “specifically competed out”. The figures for the “high-affinity binding of bFGF” value (with mouse FGF receptor (mFR) (mFR-transfected HS-deficient mutants); in the data set on mouse FGF receptor (mFR) (wild-type CHO K1 cells transfected with Mo/mFR/SV); in data set [6]) were “none of the similarly transfected HS-deficient mutants showed significant high-affinity binding”, “high levels of high-affinity binding” and “very little high-affinity binding”, respectively. Besides, the “bound 125I with increasing concentrations of unlabelled FGF” value in data set [3] (competition assay (FIG. 12)) is “decrease”. The “binding of labelled bFGF to fusion protein” value in data set [3] (presence vs absence of heparin or a heparin-like molecule) is reported as “in the presence but not in the absence”. In [4], the “degradation of bFGF in binding medium” value is “no signs of degradation”. The “biological activity after iodination” value in data set [5] was “Full biological activity”. Further, in the data set on mouse FGF receptor, the “crosslinking of bFGF to high-affinity receptors” value was “could not be crosslinked”.
